In US20040220268A1, “Compound that directly stimulates phospholipase C activity” (priority 2003, published 2004):

How the values were obtained:
Assay in all cases: Phosphoinositide hydrolysis in vitro
Format in all cases: biochemical
PLC β2 = PLC β2 (Homo sapiens, UniProt Q00722)
Protocol: (§1) The hydrolyzing activity of PtdIns-4,5-P2 was measured on mixed phospholipid vesicles containing 120 μM phosphatidylethanolamine, 30 μM PtdIns-4,5-P2, and 1 μCi/ml [3H] PtdIns-4,5-P2. Purified PLC β2, substrates, and the chemicals (2.5, 5, 10, 20, and 25 μM of m-3M3FBS or of o-3M3FBS) were coincubated (A), 25 μM of m-3M3FBS or o-3M3FBS, and phospholipid substrates were mixed with purified PLC β3, γ1, 2, or δ1 (B). Reactions were performed for 10 min at 37° C. in a 200 μl reaction mixture containing lipid micelles (5 μM [^3H] PtdIns-4,5-P2, 20,000 cpm). Reactions were stopped by adding 1 ml of CHCl3:CH3OH:HCl (50:50:0.3, v/v/v). Inositol trisphosphates were extracted with 0.5 ml of 1 M HCl/5 mM EGTA, and the radioactivity in the upper aqueous phase was measured. Data are presented as means ±S. E. M. of three independent experiments (A, B).
(§2) PLC activity was assayed using [^3H] PtdIns-4,5-P2 as a substrate (Min et al., 1993). PtdIns-4,5-P2-hydrolyzing activity was measured with mixed phospholipid micelles containing 120 μM phosphatidylethanolamine, 30 μM PtdIns-4,5-P2, and 1 μCi/ml [^3H] PtdIns-4,5-P2. The lipids, in chloroform, were dried under a stream of nitrogen gas, suspended in assay buffer (20 mM HEPES pH 7.0, 120 mM NaCl, 2 mM MgCl2, 40 or 100 μM CaCl2, and 1 mg/ml bovine albumin serum (Bayer, Leverkusen, Germany)), and sonicated. All proteins added to the reaction mixture were dialyzed overnight against the assay buffer. Incubation was performed for 10 min at 37° C. in a 200 μl reaction mixture containing lipid micelles (5 μM [3H] PtdIns-4,5-P2, 20,000 cpm). The reaction was stopped by adding 2 ml of CHCl3: CH3OH: HCl (50: 50: 0.3, v/v/v). The inositol triphosphates were extracted with 0.5 ml of 1 N HCl, and radioactivities in the upper aqueous phase were measured.

PLC γ2 = biological target: T1, PLC γ2 (Homo sapiens, UniProt P16885); conditions: 25 μM; purified isozyme
T1 sequence (P16885 1-1265): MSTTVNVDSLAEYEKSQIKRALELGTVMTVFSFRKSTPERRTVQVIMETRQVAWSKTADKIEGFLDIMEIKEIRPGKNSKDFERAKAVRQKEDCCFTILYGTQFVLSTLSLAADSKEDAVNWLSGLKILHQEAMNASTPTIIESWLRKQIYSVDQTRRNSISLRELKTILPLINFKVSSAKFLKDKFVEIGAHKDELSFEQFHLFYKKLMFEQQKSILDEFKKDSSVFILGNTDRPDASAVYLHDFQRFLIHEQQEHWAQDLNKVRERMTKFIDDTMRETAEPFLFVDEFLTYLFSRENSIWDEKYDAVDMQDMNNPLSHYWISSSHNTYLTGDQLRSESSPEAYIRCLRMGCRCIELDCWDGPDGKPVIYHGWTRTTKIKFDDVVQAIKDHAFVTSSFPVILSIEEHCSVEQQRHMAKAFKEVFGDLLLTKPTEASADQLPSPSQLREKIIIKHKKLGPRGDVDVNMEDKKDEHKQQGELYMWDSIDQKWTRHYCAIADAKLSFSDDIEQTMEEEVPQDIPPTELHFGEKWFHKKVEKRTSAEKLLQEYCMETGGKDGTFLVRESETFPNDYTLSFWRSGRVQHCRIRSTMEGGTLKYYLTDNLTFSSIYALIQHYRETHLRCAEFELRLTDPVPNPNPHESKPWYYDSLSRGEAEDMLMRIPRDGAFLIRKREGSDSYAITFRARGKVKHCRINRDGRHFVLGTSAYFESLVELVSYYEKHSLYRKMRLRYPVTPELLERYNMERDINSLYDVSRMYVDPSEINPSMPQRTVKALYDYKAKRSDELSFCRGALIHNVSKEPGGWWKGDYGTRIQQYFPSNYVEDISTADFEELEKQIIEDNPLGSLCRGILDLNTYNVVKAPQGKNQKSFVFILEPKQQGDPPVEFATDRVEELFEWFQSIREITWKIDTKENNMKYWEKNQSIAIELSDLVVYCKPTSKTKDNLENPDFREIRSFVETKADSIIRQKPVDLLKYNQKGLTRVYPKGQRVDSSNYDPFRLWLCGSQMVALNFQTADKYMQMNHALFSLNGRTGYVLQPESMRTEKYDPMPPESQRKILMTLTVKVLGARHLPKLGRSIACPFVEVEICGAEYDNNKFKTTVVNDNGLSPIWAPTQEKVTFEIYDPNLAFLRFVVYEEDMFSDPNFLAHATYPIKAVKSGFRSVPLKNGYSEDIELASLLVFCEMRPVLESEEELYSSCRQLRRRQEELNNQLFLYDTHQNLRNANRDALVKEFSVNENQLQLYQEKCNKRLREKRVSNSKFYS
Protocol: as §1, §2

PLC δ1 = biological target: T2, PLC δ1 (Homo sapiens, UniProt P51178); conditions: 25 μM; purified isozyme
T2 sequence (P51178 1-756): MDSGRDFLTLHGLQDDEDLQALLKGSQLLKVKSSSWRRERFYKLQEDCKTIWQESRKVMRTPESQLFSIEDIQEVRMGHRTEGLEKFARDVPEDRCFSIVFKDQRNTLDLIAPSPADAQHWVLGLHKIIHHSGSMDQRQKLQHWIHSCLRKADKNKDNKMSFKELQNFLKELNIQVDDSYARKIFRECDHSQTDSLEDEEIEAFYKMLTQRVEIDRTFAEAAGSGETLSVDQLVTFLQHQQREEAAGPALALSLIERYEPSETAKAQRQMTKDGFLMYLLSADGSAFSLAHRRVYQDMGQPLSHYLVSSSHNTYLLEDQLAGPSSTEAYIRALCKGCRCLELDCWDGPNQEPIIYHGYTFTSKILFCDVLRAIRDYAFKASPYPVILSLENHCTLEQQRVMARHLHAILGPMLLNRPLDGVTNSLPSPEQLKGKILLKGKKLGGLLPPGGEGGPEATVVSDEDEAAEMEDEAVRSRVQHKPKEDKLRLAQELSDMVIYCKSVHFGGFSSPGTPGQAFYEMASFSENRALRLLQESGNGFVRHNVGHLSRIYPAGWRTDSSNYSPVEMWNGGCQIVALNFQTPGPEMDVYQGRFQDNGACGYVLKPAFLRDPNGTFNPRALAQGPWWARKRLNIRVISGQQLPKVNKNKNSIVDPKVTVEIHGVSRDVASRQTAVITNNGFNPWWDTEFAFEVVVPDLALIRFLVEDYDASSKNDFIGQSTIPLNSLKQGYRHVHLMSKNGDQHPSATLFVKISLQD
Protocol: as §1, §2

Sequence of PLC β2 (Q00722 whole entry, species assumed): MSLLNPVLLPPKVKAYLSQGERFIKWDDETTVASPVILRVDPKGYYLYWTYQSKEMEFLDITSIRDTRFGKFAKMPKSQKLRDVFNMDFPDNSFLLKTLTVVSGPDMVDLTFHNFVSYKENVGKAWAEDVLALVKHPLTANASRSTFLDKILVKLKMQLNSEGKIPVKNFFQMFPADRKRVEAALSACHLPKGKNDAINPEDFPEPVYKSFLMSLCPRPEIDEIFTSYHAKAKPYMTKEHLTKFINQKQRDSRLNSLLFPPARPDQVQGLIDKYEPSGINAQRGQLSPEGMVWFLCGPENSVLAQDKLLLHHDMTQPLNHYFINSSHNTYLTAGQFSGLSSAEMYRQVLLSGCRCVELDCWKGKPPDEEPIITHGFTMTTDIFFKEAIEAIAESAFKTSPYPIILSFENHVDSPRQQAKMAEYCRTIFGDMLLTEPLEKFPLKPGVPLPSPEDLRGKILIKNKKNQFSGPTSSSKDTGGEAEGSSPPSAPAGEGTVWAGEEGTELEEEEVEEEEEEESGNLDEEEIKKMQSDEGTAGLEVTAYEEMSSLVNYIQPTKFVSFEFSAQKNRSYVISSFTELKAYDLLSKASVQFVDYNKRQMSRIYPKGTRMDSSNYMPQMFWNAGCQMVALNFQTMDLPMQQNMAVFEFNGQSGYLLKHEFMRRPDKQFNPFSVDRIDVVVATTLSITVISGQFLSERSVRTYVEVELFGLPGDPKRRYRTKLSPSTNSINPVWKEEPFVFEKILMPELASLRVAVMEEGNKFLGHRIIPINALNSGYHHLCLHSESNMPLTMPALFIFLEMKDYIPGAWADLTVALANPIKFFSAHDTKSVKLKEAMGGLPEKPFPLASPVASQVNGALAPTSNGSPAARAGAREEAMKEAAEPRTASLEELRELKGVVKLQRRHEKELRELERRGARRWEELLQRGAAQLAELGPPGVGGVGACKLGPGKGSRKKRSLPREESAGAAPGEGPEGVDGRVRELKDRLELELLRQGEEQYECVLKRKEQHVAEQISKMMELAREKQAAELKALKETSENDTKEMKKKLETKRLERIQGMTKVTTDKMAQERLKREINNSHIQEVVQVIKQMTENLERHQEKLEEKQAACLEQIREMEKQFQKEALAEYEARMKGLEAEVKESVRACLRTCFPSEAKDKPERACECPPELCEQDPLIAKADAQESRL

SMILES | effect on PIP2-hydrolyzing activity of PLC β2 (PLC β2; at 10 μM or higher concentrations (up to 25 μM)) | activity of PLC gamma2 (PLC γ2) | activity of PLC delta1 (PLC δ1) | in vitro PLCβ2 activity (PLC β2; [3H] PtdIns as substrate, data not shown) | concentration at which PIP2-hydrolyzing activity of PLC β2 was enhanced (PLC β2; [3H] PtdIns-4,5-P2 substrate) | effect on PIP2-hydrolyzing activity of PLC β2 (PLC β2; low doses (ca., 2.5 and 5 μM), [3H] PtdIns-4,5-P2 substrate)
Cc1cc(C)c(S(=O)(=O)Nc2ccccc2C(F)(F)F)c(C)c1 [o-3M3FBS, 2,4,6-Trimethyl-N-(ortho 3-trifluoromethyl-phenyl)-benzenesulfonamide, reference compound] | no effect | did not affect | did not affect | – | – | –
Cc1cc(C)c(S(=O)(=O)Nc2cccc(C(F)(F)F)c2)c(C)c1 [m-3M3FBS, 2,4,6-Trimethyl-N-(meta 3-trifluoromethyl-phenyl)-benzenesulfonamide] | – | augmented the activity | augmented the activity | significantly increased | exceeding 10 μM | no effect
